Data from the supplement of paper PMC6045584.
± gives the standard deviation of the averaged measurements.

Experiments:
CELECOXIB = compound: Cc1ccc(-c2cc(C(F)(F)F)nn2-c2ccc(S(N)(=O)=O)cc2)cc1 [CELECOXIB]; experiment: surviving fraction relative to DMSO-only wells; higher = less growth inhibition; settings: exposure time: 5 days
Summary of the method: (§1)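 Tumour cell lines were seeded in log phase at 250–500 cells per well into 384-well plates. Starting 24 hours later, inhibitors were present continuously for five days at 0.5, 1, 5, 10, 50, 100, 500 and 1000 nM. Surviving fraction, from CellTiter-Glo luminescence, is normalised to the median of DMSO-only wells. Three screens per line were required, with replicate Pearson r >0.7 and median Z' >0.3 for a line to be kept.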

CARBOPLATIN = compound: O=C(O)C1(C(=O)O)CCC1.[NH2-].[NH2-].[Pt+2] [CARBOPLATIN]; experiment: as above; settings: exposure time: 5 days
Summary of the method: as §1

Row | Test System | surviving fraction (CELECOXIB; 0.5 nM) | surviving fraction (CELECOXIB; 1 nM) | surviving fraction (CELECOXIB; 5 nM) | surviving fraction (CELECOXIB; 10 nM) | surviving fraction (CELECOXIB; 50 nM) | surviving fraction (CELECOXIB; 100 nM) | surviving fraction (CELECOXIB; 500 nM) | surviving fraction (CELECOXIB; 1000 nM) | surviving fraction (CARBOPLATIN; 0.5 nM) | surviving fraction (CARBOPLATIN; 1 nM) | surviving fraction (CARBOPLATIN; 5 nM) | surviving fraction (CARBOPLATIN; 10 nM) | surviving fraction (CARBOPLATIN; 50 nM) | surviving fraction (CARBOPLATIN; 100 nM) | surviving fraction (CARBOPLATIN; 500 nM) | surviving fraction (CARBOPLATIN; 1000 nM)
1 | 22RV1 PROSTATE | 1.02 ± 0.059 | 1.06 ± 0.082 | 0.996 ± 0.088 | 1.03 ± 0.025 | 0.956 ± 0.17 | 1.01 ± 0.16 | 1.02 ± 0.12 | 1.06 ± 0.035 | 1.1 ± 0.072 | 0.999 ± 0.057 | 1.03 ± 0.051 | 1.02 ± 0.036 | 1.06 ± 0.093 | 1.04 ± 0.12 | 1.06 ± 0.068 | 1.13 ± 0.17
2 | 93VU HEADNECK | 1.02 ± 0.064 | 1.11 ± 0.076 | 1.1 ± 0.043 | 1.08 ± 0.16 | 1.03 ± 0.083 | 1.08 ± 0.15 | 1.08 ± 0.052 | 1.07 ± 0.086 | 1.19 ± 0.012 | 1.13 ± 0.055 | 1.26 ± 0.097 | 1.24 ± 0.21 | 1.27 ± 0.091 | 1.28 ± 0.09 | 1.19 ± 0.027 | 1.21 ± 0.1
3 | 143B BONE | 0.999 ± 0.011 | 1.04 ± 0.03 | 1.07 ± 0.057 | 1.05 ± 0.0021 | 1.08 ± 0.052 | 1.14 ± 0.072 | 1.08 ± 0.05 | 1.08 ± 0.033 | 1.11 ± 0.099 | 1.11 ± 0.083 | 1.13 ± 0.06 | 1.14 ± 0.097 | 1.15 ± 0.15 | 1.13 ± 0.053 | 1.13 ± 0.11 | 1.12 ± 0.11
4 | A549 LUNG | 1.04 ± 0.039 | 1.05 ± 0.025 | 1.05 ± 0.045 | 1.05 ± 0.029 | 1.08 ± 0.044 | 1.08 ± 0.045 | 1.11 ± 0.057 | 1.05 ± 0.044 | 1.07 ± 0.023 | 1.08 ± 0.013 | 1.08 ± 0.02 | 1.03 ± 0.019 | 1.1 ± 0.011 | 1.06 ± 0.019 | 1.07 ± 0.032 | 1.09 ± 0.012
5 | ASKA SYNOVIAL | 1.16 ± 0.098 | 1.15 ± 0.074 | 1.2 ± 0.05 | 1.19 ± 0.048 | 1.19 ± 0.12 | 1.21 ± 0.064 | 1.15 ± 0.073 | 1.12 ± 0.039 | 1.03 ± 0.06 | 1.05 ± 0.022 | 1.16 ± 0.088 | 1.17 ± 0.061 | 1.14 ± 0.073 | 1.27 ± 0.1 | 1.1 ± 0.097 | 1.09 ± 0.086
6 | BT20 BREAST | 1.14 ± 0.085 | 1.1 ± 0.035 | 1.08 ± 0.059 | 1.19 ± 0.077 | 1.11 ± 0.072 | 1.22 ± 0.061 | 1.23 ± 0.059 | 1.07 ± 0.047 | 1.11 ± 0.04 | 1.19 ± 0.12 | 1.39 ± 0.49 | 1.24 ± 0.04 | 1.2 ± 0.088 | 1.29 ± 0.14 | 1.33 ± 0.16 | 1.11 ± 0.069
7 | BT549 BREAST | 1.02 ± 0.08 | 1.06 ± 0.088 | 1.07 ± 0.16 | 1.24 ± 0.062 | 1.15 ± 0.068 | 1.28 ± 0.067 | 1.18 ± 0.03 | 1.15 ± 0.058 | 1.08 ± 0.038 | 1.19 ± 0.04 | 1.06 ± 0.081 | 1.05 ± 0.03 | 1.05 ± 0.097 | 1.2 ± 0.072 | 0.967 ± 0.034 | 1.16 ± 0.032
8 | CADOES1 SOFT TISSUE | 0.792 ± 0.11 | 0.925 ± 0.091 | 0.807 ± 0.17 | 0.984 ± 0.052 | 0.973 ± 0.043 | 0.942 ± 0.024 | 0.888 ± 0.045 | 0.827 ± 0.097 | 0.992 ± 0.13 | 0.966 ± 0.11 | 0.934 ± 0.052 | 0.987 ± 0.15 | 0.96 ± 0.11 | 0.962 ± 0.078 | 1.1 ± 0.11 | 1.02 ± 0.11
9 | CAL51 BREAST | 1.03 ± 0.023 | 1.04 ± 0.056 | 0.991 ± 0.026 | 0.998 ± 0.08 | 1.07 ± 0.027 | 1.11 ± 0.03 | 1.07 ± 0.021 | 1.05 ± 0.064 | 0.974 ± 0.023 | 0.924 ± 0.08 | 0.98 ± 0.018 | 0.996 ± 0.017 | 1.03 ± 0.077 | 1.02 ± 0.022 | 1.09 ± 0.022 | 0.977 ± 0.024
10 | CAL72 BONE | 1.03 ± 0.1 | 1.04 ± 0.14 | 1.05 ± 0.11 | 1.04 ± 0.046 | 1.06 ± 0.12 | 1.08 ± 0.17 | 1.07 ± 0.13 | 1.09 ± 0.12 | 1.05 ± 0.081 | 1.03 ± 0.094 | 1.06 ± 0.035 | 1.06 ± 0.052 | 1.12 ± 0.084 | 1.03 ± 0.23 | 1.1 ± 0.11 | 1.01 ± 0.15
11 | CAL120 BREAST | 0.962 ± 0.045 | 0.979 ± 0.039 | 0.964 ± 0.067 | 0.99 ± 0.049 | 1 ± 0.04 | 1.01 ± 0.032 | 0.995 ± 0.085 | 1 ± 0.011 | 1.02 ± 0.044 | 0.927 ± 0.023 | 1.02 ± 0.04 | 0.977 ± 0.027 | 1.02 ± 0.044 | 0.993 ± 0.033 | 0.986 ± 0.04 | 0.976 ± 0.034
12 | CASKI CERVIX | 0.944 ± 0.024 | 0.881 ± 0.056 | 0.952 ± 0.029 | 0.93 ± 0.055 | 1.01 ± 0.027 | 1 ± 0.051 | 0.933 ± 0.034 | 0.972 ± 0.11 | 0.946 ± 0.064 | 0.877 ± 0.018 | 0.954 ± 0.043 | 0.93 ± 0.069 | 1.05 ± 0.025 | 1.04 ± 0.021 | 1.03 ± 0.077 | 1.03 ± 0.058
13 | CCK81 LARGE INTESTINE | 0.841 ± 0.1 | 0.867 ± 0.052 | 0.744 ± 0.14 | 0.819 ± 0.059 | 0.774 ± 0.094 | 0.732 ± 0.099 | 0.735 ± 0.089 | 0.813 ± 0.077 | 0.883 ± 0.042 | 0.866 ± 0.092 | 0.835 ± 0.083 | 0.831 ± 0.093 | 0.77 ± 0.038 | 0.782 ± 0.081 | 0.784 ± 0.082 | 0.725 ± 0.043
14 | CHLA90 AUTONOMIC GANGLIA | 1.01 ± 0.048 | 0.999 ± 0.058 | 0.99 ± 0.054 | 1.03 ± 0.12 | 1.03 ± 0.088 | 1 ± 0.15 | 0.999 ± 0.058 | 1.08 ± 0.026 | 0.925 ± 0.057 | 0.943 ± 0.072 | 0.923 ± 0.058 | 0.917 ± 0.045 | 1.14 ± 0.11 | 1.11 ± 0.098 | 1.09 ± 0.097 | 1.13 ± 0.14
15 | CME SYNOVIAL | 1.4 ± 0.11 | 1.45 ± 0.18 | 1.37 ± 0.076 | 1.34 ± 0.079 | 1.47 ± 0.23 | 1.41 ± 0.16 | 1.38 ± 0.13 | 1.34 ± 0.076 | 1.25 ± 0.15 | 1.36 ± 0.039 | 1.4 ± 0.047 | 1.48 ± 0.061 | 1.35 ± 0.16 | 1.42 ± 0.024 | 1.3 ± 0.14 | 1.39 ± 0.082
16 | DU4475 BREAST | 0.894 ± 0.08 | 0.836 ± 0.06 | 0.943 ± 0.095 | 0.937 ± 0.014 | 0.876 ± 0.051 | 0.892 ± 0.12 | 0.973 ± 0.18 | 0.872 ± 0.015 | 1.03 ± 0.064 | 0.931 ± 0.032 | 1.08 ± 0.23 | 1.04 ± 0.089 | 0.909 ± 0.029 | 0.975 ± 0.18 | 0.895 ± 0.06 | 1.03 ± 0.035
17 | G292 BONE | 1.03 ± 0.028 | 1.02 ± 0.05 | 1.03 ± 0.039 | 1 ± 0.057 | 1.04 ± 0.02 | 1.02 ± 0.047 | 0.996 ± 0.045 | 0.964 ± 0.076 | 1.01 ± 0.039 | 1 ± 0.026 | 1.07 ± 0.044 | 1.05 ± 0.015 | 1.04 ± 0.064 | 1.04 ± 0.029 | 1.01 ± 0.021 | 1.03 ± 0.064
18 | H23 LUNG | 1.01 ± 0.018 | 1.04 ± 0.062 | 1.04 ± 0.021 | 1.03 ± 0.05 | 1.07 ± 0.05 | 1.18 ± 0.067 | 1.18 ± 0.015 | 1.16 ± 0.074 | 1.06 ± 0.038 | 1.08 ± 0.029 | 1.07 ± 0.013 | 1.01 ± 0.03 | 1.03 ± 0.037 | 1.15 ± 0.02 | 1.09 ± 0.046 | 1.11 ± 0.067
19 | HCC38 BREAST | 1.17 ± 0.23 | 1.4 ± 0.23 | 1.33 ± 0.23 | 1.36 ± 0.25 | 1.25 ± 0.1 | 1.17 ± 0.0085 | 1.09 ± 0.095 | 1.15 ± 0.12 | 1.07 ± 0.18 | 0.841 ± 0.19 | 1.34 ± 0.44 | 1.15 ± 0.15 | 0.944 ± 0.04 | 0.919 ± 0.13 | 0.962 ± 0.086 | 1 ± 0.12
20 | HCC70 BREAST | 1.07 ± 0.049 | 1.045 ± 0.0081 | 1.08 ± 0.067 | 1.13 ± 0.091 | 1.06 ± 0.044 | 1.04 ± 0.099 | 1.2 ± 0.14 | 1.18 ± 0.038 | 1.04 ± 0.049 | 1.07 ± 0.078 | 1.13 ± 0.14 | 1.13 ± 0.05 | 1.19 ± 0.064 | 0.999 ± 0.049 | 1.06 ± 0.082 | 1.02 ± 0.054
